The source of these data is publication PMC11113362 (MicrobiologyOpen, 2024).

Data set [1] has as its system P. aeruginosa PAO1. Nature of the data set: Growth experiments with ligand as sole carbon source. Conditions: M9 minimal medium, 10 mM compound, 37°C.
Data set [2] addresses T1, PA0602 solute binding protein (Pseudomonas aeruginosa, UniProt Q9I5T6). Nature of the data set: biochemical. Set-up: species or system Pseudomonas aeruginosa PAO1. Conditions: for K D: PA0602, microcalorimetric titration, TMP buffer pH 8. The source says:
At times thermal shift assays provide […] results, i.e. although there is binding, the Tm shift induced is only minor.

For data set [3], the system named is P. aeruginosa. Set-up: method as in Dagorn et al., 2013. To be noted: 10 μM GABA; ref Dagorn et al., 2013; cited from earlier work.
The target of data set [4] is T2, AgtB (PA0604) solute binding protein (Pseudomonas aeruginosa, UniProt Q9I5T4). Conditions: microcalorimetric titration, TMP buffer pH 8.
Description: (§1) Experiments were conducted on a VP‐microcalorimeter (Microcal). Proteins were dialyzed into the TMP buffer, placed at a concentration of 20–40 µM into the sample cell and titrated with 0.25–2.5 mM ligand solutions that were prepared using the dialysis buffer immediately before use. […] The mean enthalpies measured from the injection of ligands into the buffer were subtracted from raw titration data before data analysis with the MicroCal version of ORIGIN. Data were fitted with the “One binding site model” of ORIGIN.
The target of data set [5] is T3, PA4985 solute binding protein (Pseudomonas aeruginosa, UniProt Q9HUI0). Nature of the data set: biochemical. Also noted: species or system Pseudomonas aeruginosa PAO1. The text has this: PA4985 is an uncharacterized protein. […] .
Data set [6] deals with T1, PA0602 solute binding protein. To be noted: thermal shift assay, Biolog compound arrays, more than 2°C considered significant.
Description: (§2) Briefly, assays were carried out using a MyIQ2 Real‐Time PCR instrument (BioRad). Experiments were conducted in 96‐well plates, and each assay mixture contained 20.5 μL of the dialyzed protein at 10–50 μM, 2 μL of 5X SYPRO orange (Life Technologies) and 2.5 μL of ligand solution or the equivalent amount of buffer in the ligand‐free control. Compound arrays PM1, PM2a, PM3B, PM4A, PM5, PM6, PM7, and PM8 from Biolog (Newark) were used. Compounds were dissolved in 50 μL water that, according to the information provided by the manufacturer, corresponds to a concentration of 10–20 mM. […] The protein unfolding curves were monitored by detecting changes in SYPRO Orange fluorescence. The Tm values correspond to the minima of the first derivatives of the raw fluorescence data.
The PA0602 protein was overexpressed in E. coli and purified. Freshly dialyzed protein was submitted to thermal shift assays‐based ligand screening using the Biolog compound arrays PM1, PM2A (both carbon sources), PM3B (nitrogen sources), PM4 (phosphorous and sulfur sources), PM5 (nutrient supplements), PM6, PM7, and PM8 (all peptide nitrogen sources). Ligand binding to the protein typically delays thermal unfolding causing increases in the midpoint of the protein unfolding transition (Tm). Tm increases of more than 2°C are considered significant.
For data set [7], the target named is T3, PA4985 solute binding protein. To be noted: thermal shift assay, Biolog compound arrays, more than 2°C considered significant.
Description: as §2
Data set [8] addresses T2, AgtB (PA0604) solute binding protein. Nature of the data set: biochemical.
Description: as §1
The target of data set [9] is T4, PA0602 (Pseudomonas aeruginosa, UniProt Q9I5T6).
T4 construct: residues 22-344, signal peptide omitted, N-terminal His-tag with thrombin site, expressed in E. coli BL21 (DE3)
Nature of the data set: Isothermal titration calorimetry (VP-microcalorimeter) of 20-40 µM purified SBP titrated with 0.25-2.5 mM ligand in TMP buffer (5 mM Tris-HCl, 5 mM MES, 5 mM PIPES, 10% glycerol, pH 8), fitted with the one binding site model; temperature not stated.

For data set [10], the target named is T5, PA4985 (Pseudomonas aeruginosa, UniProt Q9HUI0).
T5 construct: residues 40-363, signal peptide omitted, N-terminal His-tag with thrombin site, expressed in E. coli BL21 (DE3)
The data set is described as above.

Data set [11] addresses T2, AgtB (PA0604) solute binding protein. Conditions: thermal shift assay, Biolog compound arrays, more than 2°C considered significant.
Description: as §2
To identify the ligands that interact with AgtB, we pursued the same strategy and screened for ligand binding using the PM1 to PM8 compound arrays.
Data set [12] has as its system AgtS‐LBD (PA0600, amino acids 22–274). Nature of the data set: Isothermal titration calorimetry of AgtS‐LBD (small ligand and protein‐protein binding studies). To be noted: for K D (binding of SBP to AgtS‐LBD): 5–10 μM SBP titrated with 50–97 μM AgtS‐LBD, no small ligand; for Protein–protein interaction with AgtS‐LBD, His‐tag‐free protein: His‐tag removed by thrombin, in the presence of GABA (PA0602) or 5‐AMV (AgtB); for K D (binding of ligand‐loaded SBP to AgtS‐LBD): both compartments contained 5 mM 5‐AMV (AgtB) or 1 mM GABA (PA0602). (In general: In ITC the heat of successive injections is recorded.)
Description: as §1
Fractions that correspond to cleaved protein were dialyzed overnight into the TMP buffer for ITC experiments.
To address this issue, the individual AgtS‐LBD was produced as a purified, recombinant protein.
To assess the possibility of SBP‐mediated activation of AgtS, we conducted protein‐protein microcalorimetric binding studies (Table 1).
Proteins used for these experiments contained an N‐terminal extension harboring the His‐tag. To exclude the possibility that the presence of this extension impedes protein interaction, the tag was cleaved with thrombin in freshly purified PA0602, AgtB, and AgtS‐LBD and its removal was verified by SDS‐PAGE (Figure A4).

Data set [13] deals with T6, AruS‐LBD (PA4982, residues 31–141) (Pseudomonas aeruginosa, UniProt Q9HUI3).
T6 sequence (Q9HUI3 whole entry, looked up): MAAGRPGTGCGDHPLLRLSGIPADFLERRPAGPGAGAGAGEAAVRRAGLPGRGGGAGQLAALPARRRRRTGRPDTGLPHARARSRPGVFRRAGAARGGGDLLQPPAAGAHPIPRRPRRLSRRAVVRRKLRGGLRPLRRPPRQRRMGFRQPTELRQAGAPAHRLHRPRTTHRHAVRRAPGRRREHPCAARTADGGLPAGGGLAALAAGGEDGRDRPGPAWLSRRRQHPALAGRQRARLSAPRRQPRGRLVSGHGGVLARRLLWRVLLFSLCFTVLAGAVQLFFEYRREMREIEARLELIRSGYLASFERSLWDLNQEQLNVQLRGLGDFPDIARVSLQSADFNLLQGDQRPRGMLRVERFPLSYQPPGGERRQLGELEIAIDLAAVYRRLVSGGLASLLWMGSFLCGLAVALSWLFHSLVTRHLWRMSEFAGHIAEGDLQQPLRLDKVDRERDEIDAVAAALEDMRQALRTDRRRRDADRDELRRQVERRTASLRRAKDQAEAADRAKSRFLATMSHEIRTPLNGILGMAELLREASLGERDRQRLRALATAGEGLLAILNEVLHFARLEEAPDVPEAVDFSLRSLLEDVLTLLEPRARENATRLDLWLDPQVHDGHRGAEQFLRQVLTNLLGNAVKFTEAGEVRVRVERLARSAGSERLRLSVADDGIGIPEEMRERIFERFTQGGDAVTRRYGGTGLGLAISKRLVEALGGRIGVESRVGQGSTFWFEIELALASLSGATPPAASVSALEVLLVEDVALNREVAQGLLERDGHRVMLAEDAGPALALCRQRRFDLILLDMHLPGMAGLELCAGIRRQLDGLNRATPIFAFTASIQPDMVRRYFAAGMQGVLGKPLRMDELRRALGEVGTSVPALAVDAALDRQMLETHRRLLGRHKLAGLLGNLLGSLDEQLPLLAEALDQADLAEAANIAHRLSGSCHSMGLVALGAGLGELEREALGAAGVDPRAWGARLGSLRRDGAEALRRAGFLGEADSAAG
Nature of the data set: Bacterial two‐hybrid assay (BACTH). To be noted: BACTH in E. coli BTH101 on X‐Gal plates; no ligand or GABA, 5‐AMV, spermidine or ethylenediamine at 5 mM.
Description: Plates were incubated at 30°C for 24–48 h. As a positive control, the plasmids pKT25‐zip and pUT18C‐zip were co‐transformed into E. coli BTH101. Negative controls were E. coli BTH101 harboring pUT18C and pKNT25::AruS (strain K^+T^−), and a strain harboring pUT18C::PA4985 and pKNT25 (strain K^−T^+).
This system is based on an adenylate cyclase that contains two catalytically active domains. […] The resulting increase in cAMP induces the expression of lactose and maltose operons, causing a blue colouration of bacteria on X‐Gal‐containing plates. We generated a plasmid that expresses PA4985 fused to one enzyme subunit (pUT18C::PA4985) and a plasmid encoding a fusion of AruS‐LBD to the other subunit (pKNT25::AruS). E. coli BTH101 was transformed with both plasmids, resulting in strain K^+T^+. The K^+T^− and K^−T^+ are negative control strains that contained one of the plasmid constructs (plus sign) and the empty version of the second plasmid (minus sign). The positive control (C+) was provided by the manufacturer.

“Also recorded” adds a separate entry of the source. Where two headings read alike, the source gives them in different places. Where a SMILES comes first, the peptide text is derived from it.

A word on the Kd: it is the concentration at which binding is half-saturated. Low values mean a tighter complex, high ones a looser complex. As for `NCCCC(=O)O` [GABA, γ‐aminobutyrate], the “Growth as sole carbon source” value in data set [1] is “significant growth”. The equilibrium dissociation constant (Kd) in [2] worked out at 2.3 ± 0.8 µM; in data set [5], 0.58 ± 0.1 µM. Also, the Cytotoxicity and virulence result in [3] is given as “strongly increased”. In addition, the Growth or motility result in data set [3] is “did not modulate”. For the same molecule, the “K D” value in [4] was “did not reveal binding; also recorded: No binding”.

`NCCCCC(=O)O` [5‐AMV, 5‐aminovalerate]: the Tm shift in [6] was 2.3 °C; in data set [7] it was 7.6 °C. The “Growth as sole carbon source” value in data set [1] was “significant growth”. Besides, the Kd came to 30 ± 2 µM in data set [2], 1.6 ± 0.1 µM in data set [5] and 17 ± 0.8 µM in data set [8].

For `NCC(=O)N[C@@H](CCC(N)=O)C(=O)O` [Gly‐Gln] (H-Gly-Gln-OH), in data set [4], the “K D” value is reported as “did not reveal binding”.

Consider `N=C(N)NCCC[C@H](N)C(=O)O` [L‐Arg], for which the Tm shift result in data set [7] is given as “No binding”. In addition, the “K D” value in data set [5] (PA4985, microcalorimetric titration, TMP buffer pH 8) is given as “No binding”.

Consider `NCCCCN` [putrescine], for which the Tm shift entry in data set [6] was “No binding”. Further, in data set [2], the “K D” value is listed as “No binding”.

For `NCCN` [Ethylenediamine, ethylenediamine], the Tm shift in [6] was 2.0 °C; in data set [7], 3.5 °C. Moreover, the Kd came out at 103 ± 4 µM in [9] and 19 ± 1 µM in data set [10].

On to `C[C@H](N)C(=O)NCC(=O)O` [Ala‐Gly] (H-Ala-Gly-OH), for which the “K D” value in data set [4] was “did not reveal binding”.

As for `NCCC(=O)O` [β‐alanine], the Tm shift entry in data set [11] was “No binding”. For the same molecule, the “K D” value in data set [4] is reported as “No binding”.

`CC(=O)N[C@@H]1[C@@H](O)[C@H](O)[C@@H](CO)O[C@@H]1O` [N‐acetyl‐D‐glucosamine]: the Tm shift entry in data set [6] is “absence of binding”; in data set [6] (listed as NADG), “No binding”; in [11], “absence of binding; also recorded: No binding”. The figures for the “K D” value in [2], in data set [2] (listed as NADG) and in data set [4] were “absence of binding”, “No binding” and “absence of binding; also recorded: No binding”, respectively. Besides, the “Binding of small ligand to AgtS‐LBD” value in data set [12] (microcalorimetric titration of AgtS‐LBD) is “did not show binding”.

As to `NCCCCNCCCN` [Spermidine, spermidine], the values for the Tm shift result in data set [6] and in [7] were “No binding” and 2.8 °C, respectively. The “Growth as sole carbon source” value in data set [1] was “significant growth”. Further, the “K D” value in [2] is on record as “No binding”. Moreover, the Kd in data set [5] is 160 ± 23 µM.

B1: PA4985: solute binding protein (SBP_bac_8) of P. aeruginosa PAO1 encoded near the aruSR TCS (protein)
chain: MGSSHHHHHHSSGLVPRGSHMADDGLVVVGYGGAGQKAQEVAFFQPFTQQTGIPVVQSEYNGEMARIKVMADTGHADWDLVQVEGPDLARGCDDGLFERLDWQAIGGKQQLIANAAQECGSAALVWGVAIGYDADRLQQPPASWADFWDVQRFPGKRGLRKRAIYNLEFALLADGVPREQVYPLLATRAGADRAFAKLGQLKPYIQWWEAGAQPAQWLAAGDVVMTSTYTGRIADAHRAGRNLALVWQGSLYGMDYWAVVKGSKRGAEARRFIAFANAPDAQVRYVENIPYGPTNRQAAQRLPAQLASWVPTAPANLEQGLAMDDEFWVEHGEELEERFNAWASQ
Consider B1, for which the “PA4985/AruS‐LBD interaction” value in [13] is given as “did not demonstrate an interaction; also recorded: absence of an PA4985/AruS–LBD interaction”.

B2: AgtB: recombinant His‐tagged solute binding protein (SBP_bac_8) of P. aeruginosa PAO1, part of the agt transporter operon (protein)
chain: MGSSHHHHHHSSGLVPRGSHMAVDLTVVSFGGANKSAQIKAFYEPYQKATGNRIVAGEYNGEMAKVKAMVDTNSVSWDLVEVESPELSRGCDEGLFEELDPAQFGKTEDFVPGAIQPCGVGFFVWSTVLAYNADKLKSAPTSWADFWDIKKFPGKRGLRKGAKYTLEFALMADGVAPKDVYGVLATKEGQDRAFKKLDEIKSSIQWWEAGAQPPQYLASGDVVMSSAYNGRIAAVQKESNLKVVWNGGIYDFDAWAIPKGAKKREETLKFIAFSVQPQQQKTYSENIAYGPANKQAVPLLDKALLKDMPTTPENIQNQVAMDVTFWADYGEQLEQRFNAWAAR
With B2, in [12], the “K D (binding of SBP to AgtS‐LBD)” value was “did not show any binding; also recorded: did not reveal binding; also recorded: No binding”; the “Protein–protein interaction with AgtS‐LBD, His‐tag‐free protein” value is listed as “did not result in any protein–protein interaction”; the “K D (binding of ligand‐loaded SBP to AgtS‐LBD)” value is listed as “absence of binding”.

B3: PA0602: recombinant His‐tagged solute binding protein (SBP_bac_8) of P. aeruginosa PAO1 (protein)
chain: MGSSHHHHHHSSGLVPRGSHMAEYVTVISFGGANKEAQETAFYKPFKSATGNRVVHGSYNGDLAKLKRMVEISHVSWDVVEVEAPELARGCEEGLFEKLDMAKVGDPADFVPGAVQPCGVGIFVWTTLLAYNPGKVAGSPQGWADFWDVKKFPGKRGLRWGAKYSLEFALMADGVAPKDVYQTLATPAGVERAFRKLDELKPYIHWWKSGQDPVRDLADGTVVMSSAYNGRIAAAQAEKQRLAMVWSGGVYDFDFWALPVGVWKKQLAEEFIRFASQPEQQKAFAENIAYGPANRKAVGLLDPQVAANLPTAPQNMQNAVGMNVAFWAEHGEALEQRFQNWAKR
In the case of B3, in [12], the “K D (binding of SBP to AgtS‐LBD)” value is on record as “did not show any binding; also recorded: did not reveal binding; also recorded: No binding”; the “Protein–protein interaction with AgtS‐LBD, His‐tag‐free protein” value is listed as “did not result in any protein–protein interaction”; the “K D (binding of ligand‐loaded SBP to AgtS‐LBD)” value is recorded as “absence of binding”.
